Results from ChEMBL document CHEMBL1143708, “5-alkynyl analogs of arabinouridine and 2'-deoxyuridine: cytostatic activity against herpes simplex virus and varicella-zoster thymidine kinase gene-transfected cells” (J Med Chem, 2007).
In brackets after ≈: the same amount, converted by molar mass. Activity calls are given as the source filed them. The rule behind the calls is not given here.

Key:
[1] = system: FM3A; assay: Inhibition of proliferation of thymidine kinase deficient mouse FM3A cells; type: functional, cell-based
[2] = system: FM3A; assay: Inhibition of proliferation of thymidine kinase deficient mouse FM3A cells expressing HSV1 thymidine kinase; type: functional, cell-based
[3] = system: FM3A; assay: Inhibition of proliferation of thymidine kinase deficient mouse FM3A cells expressing HSV2 thymidine kinase; type: functional, cell-based
[4] = system: OST; assay: Inhibition of proliferation of thymidine kinase deficient OST cells; type: functional, cell-based; conditions: Homo sapiens
[5] = Inhibition of proliferation of VZV thymidine kinase expressing OSTtk-/VZVtk+ -a cells; type: functional; conditions: Homo sapiens
[6] = Inhibition of proliferation of VZV thymidine kinase expressing OSTtk-/VZVtk+ -b cells; type: functional; conditions: Homo sapiens
[7] = system: Vesicular stomatitis virus; assay: Antiviral activity against VSV in HeLa cells at 40 to >400 ug/mL; type: functional, organism-based
[8] = system: Coxsackievirus B4; assay: Antiviral activity against Coxsackie virus B4 in HeLa cells at 40 to >400 ug/mL; type: functional, organism-based
[9] = system: Respiratory syncytial virus; assay: Antiviral activity against Respiratory syncytial virus in HeLa cells at 40 to >400 ug/mL; type: functional, organism-based
[10] = system: Human respirovirus 3; assay: Antiviral activity against Parainfluenza 3 virus in vero cells assessed as reduction of virus-induced cytopathicity at 20 to >400 ug/mL; type: functional, organism-based
[11] = system: Mammalian orthoreovirus 1; assay: Antiviral activity against Reovirus1 in vero cells assessed as reduction of virus-induced cytopathicity at 40 to >400 ug/mL; type: functional, organism-based
[12] = system: Sindbis virus; assay: Antiviral activity against Sindbis virus in vero cells assessed as reduction of virus-induced cytopathicity at 40 to >400 ug/mL; type: functional, organism-based
[13] = system: Punta Toro virus; assay: Antiviral activity against Punta Toro virus in vero cells assessed as reduction of virus-induced cytopathicity at 20 to >400 ug/mL; type: functional, organism-based
[14] = Cytotoxicity against E6SM cells assessed as alteration in cell morphology; type: cell-based; conditions: human
[15] = system: Human alphaherpesvirus 1; assay: Antiviral activity against HSV1 KOS in E6SM cells assessed as reduction of virus-induced cytopathogenicity; type: functional, organism-based; conditions: Human alphaherpesvirus 1, KOS
[16] = system: Human alphaherpesvirus 2; assay: Antiviral activity against HSV2 G in E6SM cells assessed as reduction of virus-induced cytopathogenicity; type: functional, organism-based; conditions: Human alphaherpesvirus 2, G
[17] = system: Human alphaherpesvirus 1; assay: Antiviral activity against thymidine kinase-deficient HSV1 B2006 in E6SM cells assessed as reduction of virus-induced cytopathogenicity; type: functional, organism-based; conditions: Human alphaherpesvirus 1, B2006, E6SM
[18] = system: Human alphaherpesvirus 1; assay: Antiviral activity against thymidine kinase deficient HSV1 VMW1837 in E6SM cells assessed as reduction of virus-induced cytopathogenicity; type: functional, organism-based; conditions: Human alphaherpesvirus 1, VMW1837, E6SM
[19] = system: Human betaherpesvirus 5; assay: Antiviral activity against HCMV AD169 in HEL cells assessed as reduction of virus plaque formation; type: functional, organism-based; conditions: Human betaherpesvirus 5, AD169, HEL
[20] = system: Human betaherpesvirus 5; assay: Antiviral activity against HCMV Davis in HEL cells assessed as reduction of virus plaque formation; type: functional, organism-based; conditions: Human betaherpesvirus 5, Davis
[21] = Cytotoxicity against HEL cells assessed as alteration in cell morphology; type: cell-based; conditions: human
[22] = Cytotoxicity against HEL cells; type: cell-based; conditions: human
[23] = system: Human alphaherpesvirus 3; assay: Antiviral activity against TK+ VZV OKA in HEL cells assessed as reduction of virus plaque formation; type: functional, organism-based; conditions: Human alphaherpesvirus 3, OKA
[24] = system: Human alphaherpesvirus 3; assay: Antiviral activity against TK+ VZV YS in HEL cells assessed as reduction of virus plaque formation; type: functional, organism-based; conditions: Human alphaherpesvirus 3, YS
[25] = system: Human alphaherpesvirus 3; assay: Antiviral activity against thymidine kinase deficient VZV 07/1 in HEL cells assessed as reduction of virus plaque formation; type: functional, organism-based; conditions: Human alphaherpesvirus 3, 07/1, HEL
[26] = system: Human alphaherpesvirus 3; assay: Antiviral activity against thymidine kinase deficient VZV YS in HEL cells assessed as reduction of virus plaque formation; type: functional, organism-based; conditions: Human alphaherpesvirus 3, YS
[27] = Inhibition of proliferation of mouse FM3A/O cells; type: functional, cell-based
[28] = system: Human alphaherpesvirus 3; assay: Antiviral activity against thymidine kinase deficient VZV YS/R in HEL cells assessed as reduction of virus plaque formation; type: functional, organism-based; conditions: Human alphaherpesvirus 3, YS/R
[29] = system: Vesicular stomatitis virus; assay: Antiviral activity against VSV in HeLa cells; type: functional, organism-based
[30] = system: Coxsackievirus B4; assay: Antiviral activity against Coxsackie virus B4 in HeLa cells; type: functional, organism-based; conditions: Enterovirus B
[31] = system: Respiratory syncytial virus; assay: Antiviral activity against Respiratory syncytial virus in HeLa cells; type: functional, organism-based; conditions: human respiratory syncytial virus
[32] = system: Mammalian orthoreovirus 1; assay: Antiviral activity against Reovirus1 in vero cells; type: functional, organism-based; conditions: Mammalian orthoreovirus 1, Vero
[33] = system: Punta Toro virus; assay: Antiviral activity against Punta Toro virus in vero cells; type: functional, organism-based

SMILES | IC50 [1] | IC50 [2] | IC50 [3] | IC50 [4] | IC50 [5] | IC50 [6] | Activity [7] | Activity [8] | Activity [9] | Activity [10] | Activity [11] | MCC [14] | EC50 [15] | EC50 [16] | EC50 [17] | EC50 [18] | EC50 [19] | EC50 [20] | MCC [21] | CC50 [22] | also measured
O=c1[nH]c(=O)n([C@H]2C[C@H](O)[C@@H](CO)O2)cc1C#CI | 87 µM | 0.16 µM | 0.35 µM | 34 µM | 0.063 µM | 0.12 µM | inactive | inactive | inactive | inactive | inactive | ≥ 100 µg/mL | 2 µg/mL (≈ 5.29 µM) | 7 µg/mL (≈ 18.5 µM) | 2 µg/mL (≈ 5.29 µM) | 7 µg/mL (≈ 18.5 µM) | 2.5 µM | 0.58 µM | 200 µM | 0.76 µM | Activity [12]: inactive; Activity [13]: inactive; EC50 [23]: 0.18 µM; EC50 [24]: 0.11 µM; EC50 [25]: 0.89 µM; EC50 [26]: 0.78 µM; IC50 [27]: 0.3 µM
Nc1nc2c(ncn2COC(CO)CO)c(=O)[nH]1 [GANCICLOVIR] | – | – | – | – | – | – | – | – | – | – | – | > 100 µg/mL | 0.002 µg/mL (≈ 0.00784 µM) | 0.007 µg/mL (≈ 0.0274 µM) | 0.7 µg/mL (≈ 2.74 µM) | 0.02 µg/mL (≈ 0.0784 µM) | 6.3 µM | – | > 200 µM | – | –
C#Cc1cn([C@@H]2O[C@H](CO)[C@@H](O)[C@@H]2O)c(=O)[nH]c1=O | – | – | – | – | – | – | – | – | – | – | – | 400 µg/mL | – | – | – | – | – | – | 200 µM | – | –
Nc1nc2c(ncn2COCCO)c(=O)[nH]1 [ACYCLOVIR] | – | – | – | – | – | – | – | – | – | – | – | > 400 µg/mL | 0.02 µg/mL (≈ 0.0888 µM) | 0.07 µg/mL (≈ 0.311 µM) | 40 µg/mL (≈ 178 µM) | 7 µg/mL (≈ 31.1 µM) | – | – | – | – | –
O=c1[nH]c(=O)n([C@H]2C[C@H](O)[C@@H](CO)O2)cc1/C=C/Br [BRIVUDINE] | – | – | – | ≥ 250 µM | 0.6 µM | 0.35 µM | – | – | – | – | – | ≥ 400 µg/mL | 0.02 µg/mL (≈ 0.06 µM) | 150 µg/mL (≈ 450 µM) | 40 µg/mL (≈ 120 µM) | 40 µg/mL (≈ 120 µM) | – | – | – | – | –
CC(=O)OC[C@H]1O[C@@H](n2cc(C#CI)c(=O)[nH]c2=O)[C@@H](OC(C)=O)[C@@H]1OC(C)=O | 20 µM | 5.4 µM | 0.96 µM | 5.4 µM | 3.6 µM | 3.9 µM | inactive | inactive | inactive | inactive | inactive | 40 µg/mL | 20 µg/mL (≈ 38.4 µM) | 7 µg/mL (≈ 13.5 µM) | > 10 µg/mL | > 10 µg/mL | > 20 µM | > 20 µM | 50 µM | 20 µM | Activity [12]: inactive; Activity [13]: inactive; EC50 [23]: 8.5 µM; EC50 [24]: 3.1 µM; EC50 [25]: > 20 µM; EC50 [26]: > 20 µM; IC50 [27]: 18 µM
C[Si](C)(C)C#Cc1cn([C@H]2C[C@H](O)[C@@H](CO)O2)c(=O)[nH]c1=O | ≥ 250 µM | 0.16 µM | 0.48 µM | 23 µM | 0.041 µM | 0.2 µM | inactive | inactive | inactive | inactive | inactive | > 400 µg/mL | 2 µg/mL (≈ 6.17 µM) | 7 µg/mL (≈ 21.6 µM) | 4 µg/mL (≈ 12.3 µM) | 7 µg/mL (≈ 21.6 µM) | 1.2 µM | 0.75 µM | 200 µM | 0.18 µM | Activity [12]: inactive; Activity [13]: inactive; EC50 [23]: 0.26 µM; EC50 [24]: 0.15 µM; EC50 [25]: 0.69 µM; EC50 [26]: 0.9 µM; IC50 [27]: 0.23 µM
C[Si](C)(C)C#Cc1cn([C@@H]2O[C@H](CO)[C@@H](O)[C@@H]2O)c(=O)[nH]c1=O | ≥ 250 µM | 3.8 µM | 0.29 µM | ≥ 176 µM | 0.75 µM | 1.9 µM | inactive | inactive | inactive | inactive | inactive | 400 µg/mL | 0.7 µg/mL (≈ 2.06 µM) | 2 µg/mL (≈ 5.88 µM) | 150 µg/mL (≈ 441 µM) | 150 µg/mL (≈ 441 µM) | > 50 µM | > 50 µM | 200 µM | 127 µM | Activity [12]: inactive; Activity [13]: inactive; EC50 [28]: > 50 µM; EC50 [23]: 0.48 µM; EC50 [24]: 0.33 µM; EC50 [25]: > 50 µM; IC50 [27]: ≥ 250 µM
NC(=O)c1ncn([C@@H]2O[C@H](CO)[C@@H](O)[C@H]2O)n1 [RIBAVIRIN] | – | – | – | – | – | – | – | – | – | – | – | 400 µg/mL | 70 µg/mL (≈ 287 µM) | 150 µg/mL (≈ 614 µM) | 20 µg/mL (≈ 81.9 µM) | 70 µg/mL (≈ 287 µM) | – | – | – | – | IC50 [29]: 20 µg/mL (≈ 81.9 µM); IC50 [30]: 20 µg/mL (≈ 81.9 µM); IC50 [31]: 2 µg/mL (≈ 8.19 µM); IC50 [32]: 0.7 µg/mL (≈ 2.87 µM); IC50 [33]: 20 µg/mL (≈ 81.9 µM)
Nc1ccn(C[C@@H](CO)OCP(=O)(O)O)c(=O)n1 [CIDOFOVIR] | – | – | – | – | – | – | – | – | – | – | – | – | – | – | – | – | 0.66 µM | 0.66 µM | – | 121 µM | –
C#Cc1cn([C@H]2C[C@H](O)[C@@H](CO)O2)c(=O)[nH]c1=O | ≥ 250 µM | 0.13 µM | 0.39 µM | 23 µM | 0.083 µM | 0.16 µM | inactive | inactive | inactive | inactive | inactive | > 400 µg/mL | 0.7 µg/mL (≈ 2.78 µM) | 2 µg/mL (≈ 7.93 µM) | 0.7 µg/mL (≈ 2.78 µM) | 4 µg/mL (≈ 15.9 µM) | 1.2 µM | 0.85 µM | > 200 µM | 2.5 µM | Activity [12]: inactive; Activity [13]: inactive; EC50 [23]: 0.16 µM; EC50 [24]: 0.11 µM; EC50 [25]: 0.81 µM; EC50 [26]: 0.75 µM; IC50 [27]: 0.18 µM
O=c1[nH]c(=O)n([C@@H]2O[C@H](CO)[C@@H](O)C2O)cc1/C=C/Br (single isomer, unassigned) [SORIVUDINE] | – | – | – | ≥ 250 µM | 0.15 µM | 0.2 µM | – | – | – | – | – | – | – | – | – | – | – | – | – | – | –
